US20090253634A1, “Methods and Compositions for the Treatment of Gastrointestinal Disorders” (MICROBIA, INC., priority 2005, published 2009)
Like-named read-outs stand apart in the source and are kept apart here. Bridge positions count the residues as written; N and C are the ends. Peptide text beside a SMILES is read from it.

What was measured:
[1] = target: T1, GC-C receptors on the cell surface of human colonic cells (T84 cells) (Homo sapiens, UniProt P25092); test: competitive radioligand-binding assay on T84 cells
T1 construct: 2.5×10^5 T84 cells (0.25 mg protein); host or cells: T84 human colonic cells
Experimental: The radiolabeled tracer used in these experiments was ^125I-SEQ ID NO:7. To determine binding constants, competitive inhibition of binding was used. T84 cells were cultured in T-150 plastic flasks in DMEM and Ham's F-12 medium containing 5% fetal bovine serum. Monolayers at 60-70% confluency (approximately 10^7 cells) were collected by gentle scraping followed by centrifugation, and washed twice in 50 mL of phosphate-buffered saline (PBS). The cells were resuspended in 1 mL DMEM containing 20 mM […] (Hepes), pH 7.0 and 0.5% bovine serum albumin (BSA). T84 cells were incubated with a constant amount of ^125I-SEQ ID NO:7 containing various concentrations of cold competitor. Free ^125I-SEQ ID NO:7 was separated from bound tracer by rapid suction filtration. The binding reactions were carried out in 1.5 mL microfuge tubes in 0.24 mL of DMEM/20 mM Hepes pH 7.0/0.5% BSA containing: 2.5×10^5 T84 cells (0.25 mg protein), 200,000 cpm ^125I-SEQ ID NO:7 (41 fmol, 170 pM), and 0.01 to 1,000 nM competitor. Binding assays at pH 5.0 were done in DMEM/20 mM 2-(N-morpholino) ethanesulfonic acid (Mes), pH 5.0. Binding assays in pH 8.0 were done in DMEM/20 mM Hepes/50 mM sodium bicarbonate pH 8.0. One sample contained no competitor (B0) and another contained no cells. After incubation at 37° C. for 1 h, the reaction mixtures were applied to Whatman GF/B glass-fiber filters by suction filtration. The filters were then rinsed with 10 mL ice-cold PBS buffer, inserted into plastic tubes, and added to 2 mL scintillation fluid. Radioactivity was measured in a LS 6500 liquid scintillation counter (Beckman-Coulter). The percent bound in each sample is calculated by the equation:
% B/B0=(sample cpm−no cells cpm)×100/(B0cpm−no cells cpm)
Competitive radioligand-binding curves were generated using the Graphpad PRISM™ computer program. […]

carboxypeptidase A = test: in vitro proteolytic stability: carboxypeptidase A
Experimental: The stability of SEQ ID NO:3 in the presence of several mammalian digestive enzymes was determined. SEQ ID NO:3 was exposed to a variety of in vitro conditions including digestive enzymes and low ph environments designed to simulate gastric fluid. SEQ ID NO:3 was incubated with chymotrypsin, trypsin, pepsin, aminopeptidase, carboxypeptidase A, and simulated gastric fluid (sgf) at ph 1.0. Samples were collected at 0, 3, and 24 h for all conditions except pepsin digestion and the SGF. For the latter two conditions, samples were obtained at 0, 1, and 3 h. Negative control samples were prepared for initial and final time points. A separate, positive activity control was run in parallel to SEQ ID NO:3. All samples were analyzed by LC/MS
Five (5) μL of a 40 μg/mL carboxypeptidase inhibitor (carboxypeptidase inhibitor from potato tuber (Sigma-Aldrich, C0279) stock was added to each control sample (0 and 24 h), for a final concentration of 0.4 μg/mL. All control and test (0, 3 and 24 h) samples were incubated at 37° C. for 5 min. Twenty (20) μL of a 0.01 mg/mL carboxypeptidase A (Carboxypeptidase A from human pancreas; Sigma-Aldrich, C5358) stock was added to each sample. The samples were returned to the 37° C. water bath. The reaction was quenched with 5 μL of a 40 μg/mL carboxypeptidase inhibitor at the proper time point. No extra carboxypeptidase inhibitor was added to the control samples since there was already inhibitor present. Samples were subsequently flash frozen in liquid nitrogen, and stored at −80° C. until analysis. Upon analysis, samples were thawed and transferred to a 1 mL 96-well deep microtiter plate. […] These standards were used to generate a standard curve for quantification of samples. When necessary, the standard curves were also used to calculate the concentration of the corresponding digestion product. Ten (10) μL injections were made of each sample and standard. […] For the SEQ.
To further study the SEQ ID NO:3 carboxypeptidase A digestion product, samples of 0.01 mg/mL SEQ ID NO:3 were prepared in the carboxypeptidase A reaction buffer at a total volume of 500 μL in 2 mL eppendorf tubes. Triplicate samples were prepared for the following time points: 0, 15, 30, 60, 120, 180 and 240 min. The samples were incubated at 37° C. for 5 min. Twenty (20) μL of a 0.01 mg/mL carboxypeptidase A stock were added to each sample and returned to the 37° C. water bath. The reactions were quenched with 5 μL of a 40 μg/mL carboxypeptidase inhibitor at the proper time points. Samples were subsequently flash frozen in liquid nitrogen, and stored at −80° C. until analysis. Upon analysis, samples were thawed and transferred to a 1 mL 96-well plate. Standards of SEQ ID NO:3 were prepared in carboxypeptidase A reaction buffer at 0.625, 1.25, 2.50, 5.00, and 10.00 μg/mL concentrations. These standards were used to generate a standard curve for quantification of samples. When necessary, the standard curves were also used to calculate the concentration of the corresponding digestion product. Ten (10) μL injections were made of each sample and standard. If the formation of a digestion product was evident, then a spectral analysis was used to determine the mass of the digestion product, and predict its possible identity.

T1 sequence (P25092 24-1073): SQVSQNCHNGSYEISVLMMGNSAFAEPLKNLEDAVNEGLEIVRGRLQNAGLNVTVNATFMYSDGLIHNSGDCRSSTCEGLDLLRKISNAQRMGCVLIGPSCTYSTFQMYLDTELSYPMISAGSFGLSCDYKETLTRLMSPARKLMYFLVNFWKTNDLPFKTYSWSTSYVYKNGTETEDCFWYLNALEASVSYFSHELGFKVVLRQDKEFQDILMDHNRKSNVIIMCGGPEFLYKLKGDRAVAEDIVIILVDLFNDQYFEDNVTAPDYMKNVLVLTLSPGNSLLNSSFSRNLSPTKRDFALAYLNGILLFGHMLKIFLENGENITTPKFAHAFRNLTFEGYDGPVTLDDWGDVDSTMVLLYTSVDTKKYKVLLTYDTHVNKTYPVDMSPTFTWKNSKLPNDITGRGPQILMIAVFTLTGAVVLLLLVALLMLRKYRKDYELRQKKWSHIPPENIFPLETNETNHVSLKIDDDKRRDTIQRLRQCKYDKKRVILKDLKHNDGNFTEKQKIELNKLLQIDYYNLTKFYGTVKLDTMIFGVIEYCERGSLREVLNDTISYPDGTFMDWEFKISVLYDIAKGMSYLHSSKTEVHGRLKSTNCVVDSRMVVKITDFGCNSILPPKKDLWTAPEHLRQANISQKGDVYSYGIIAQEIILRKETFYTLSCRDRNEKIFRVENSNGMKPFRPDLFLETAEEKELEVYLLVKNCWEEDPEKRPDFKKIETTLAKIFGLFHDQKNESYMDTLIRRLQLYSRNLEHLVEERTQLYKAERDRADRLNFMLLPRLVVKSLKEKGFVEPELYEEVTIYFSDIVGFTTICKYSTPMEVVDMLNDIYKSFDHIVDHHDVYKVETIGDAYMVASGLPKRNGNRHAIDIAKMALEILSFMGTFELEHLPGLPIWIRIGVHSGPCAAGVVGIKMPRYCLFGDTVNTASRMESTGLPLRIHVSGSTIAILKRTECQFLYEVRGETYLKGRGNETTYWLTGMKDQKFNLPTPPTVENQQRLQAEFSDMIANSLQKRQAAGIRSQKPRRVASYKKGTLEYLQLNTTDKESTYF

SMILES	effect of pH on binding to the high affinity site, Ki1 ([1]; pH 5, 7 and 8)	Cleavage of SEQ ID NO: 3 by proteolytic substance (carboxypeptidase A; Carboxypetidase A, 37° C., up to 24 h)	SEQ ID NO:3 average concentration (carboxypeptidase A; T0, carboxypeptidase A time course)	SEQ ID NO:3 average concentration (carboxypeptidase A; T240 (240 min))	average calculated SEQ ID NO:3 product concentration (carboxypeptidase A; T24 h samples)	SEQ ID NO:3 calculated concentration (carboxypeptidase A; all samples (0, 3, 24 h and controls))	calculated concentration of the SEQ ID NO:3 products (carboxypeptidase A; time 0 control (with inhibitor))	calculated concentration of the SEQ ID NO:3 products (carboxypeptidase A; time 0 samples)	Ki [1]	Ki ([1]; read-out: Ki2 (low affinity site), pH 7.0, T84 cells, tracer 125I-SEQ ID NO:7)	average concentration of SEQ ID NO:6 (digestion product of SEQ ID NO:3) (carboxypeptidase A; T0)
C[C@@H]1NC(=O)[C@@H]2CCCN2C(=O)[C@H](CC(N)=O)NC(=O)[C@@H]2CSSC[C@H](N)C(=O)N[C@H]3CSSC[C@H](NC1=O)C(=O)N[C@@H]([C@@H](C)O)C(=O)NCC(=O)N[C@H](C(=O)N[C@@H](Cc1ccc(O)cc1)C(=O)O)CSSC[C@H](NC(=O)[C@H](Cc1ccc(O)cc1)NC(=O)[C@H](CCC(=O)O)NC3=O)C(=O)N2 [SEQ ID NO:3] (H-CCEYCCNPACTGCY-OH; disulfide 1-6, 2-10, 5-13; N-terminus and C-terminus assumed)	not affected by pH	Yes	5115 (+/−121) nM	4438 (+/−188) nM	1.3 (+/−0.04) μg/mL	8.4 (+/−1.2) μg/mL	0.8 (+/−0.02) μg/mL	0.8 (+/−0.01) μg/mL	–	–	–
C[C@@H]1NC(=O)[C@@H]2CCCN2C(=O)[C@H](CC(N)=O)NC(=O)[C@@H]2CSSC[C@H](N)C(=O)N[C@H]3CSSC[C@H](NC1=O)C(=O)N[C@@H]([C@@H](C)O)C(=O)NCC(=O)N[C@H](C(=O)O)CSSC[C@H](NC(=O)[C@H](Cc1ccc(O)cc1)NC(=O)[C@H](CCC(=O)O)NC3=O)C(=O)N2 [SEQ ID NO:6] (H-CCEYCCNPACTGC-OH; disulfide 1-6, 2-10, 5-13)	–	–	–	–	–	–	–	–	1.57 nM	446 nM	108 (+/−2) nM
